IC50 data for eleven compounds are collected here from patent publication US8541380B2, “C-aryl glucoside SGLT2 inhibitors and pharmaceutical compositions comprising same” (Green Cross Corporation, priority 2009, dated 2013).

SMILES strings stand for the structures.

Chain of human SGLT2 (P31639 whole entry): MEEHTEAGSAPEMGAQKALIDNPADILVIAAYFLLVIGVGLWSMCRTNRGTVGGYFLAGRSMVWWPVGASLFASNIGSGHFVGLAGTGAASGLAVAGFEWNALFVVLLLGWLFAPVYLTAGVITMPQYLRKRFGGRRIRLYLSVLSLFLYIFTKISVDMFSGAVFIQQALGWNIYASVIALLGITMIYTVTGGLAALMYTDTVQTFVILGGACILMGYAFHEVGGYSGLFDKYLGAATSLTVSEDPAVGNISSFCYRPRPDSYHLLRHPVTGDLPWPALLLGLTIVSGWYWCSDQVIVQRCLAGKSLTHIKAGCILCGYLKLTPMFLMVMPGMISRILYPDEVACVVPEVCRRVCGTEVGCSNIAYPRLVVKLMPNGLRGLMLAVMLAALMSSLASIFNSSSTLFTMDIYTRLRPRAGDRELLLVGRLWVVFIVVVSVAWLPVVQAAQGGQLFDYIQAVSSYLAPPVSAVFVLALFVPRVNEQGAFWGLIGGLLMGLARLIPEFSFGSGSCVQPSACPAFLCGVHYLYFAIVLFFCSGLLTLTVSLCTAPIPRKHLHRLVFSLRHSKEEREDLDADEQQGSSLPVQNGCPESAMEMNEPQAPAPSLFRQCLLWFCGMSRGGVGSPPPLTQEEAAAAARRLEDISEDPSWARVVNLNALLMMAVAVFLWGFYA

The assay has as its target human SGLT2 (Homo sapiens (Human), UniProt P31639). Briefly: hSGLT2 inhibitory activity, sodium-dependent 14C-AMG glucose transport assay in CHO cells expressing hSGLT2. The format is cell-based. The following applies: 14C-AMG uptake, CHO cells expressing hSGLT2, 37° C. for 2 h. The text has this: Human SGLT2 (hSGLT2) gene was amplified by PCR from cDNA-Human Adult Normal Tissue Kidney (Invitrogen, Carlsbad, Calif.). The hSGLT2 sequence was cloned into pcDNA3.1(+) for mammalian expression and were stably transfected into Chinese hamster ovary (CHO) cells. SGLT2-expressing clones were selected based on resistance to G418 antibiotic (Geneticin®, Invitrogen, Carlsbad, Calif.) and activity in the ^14C-α-methyl-D-glucopyranoside (^14C-AMG) uptake assay.
For sodium-dependent glucose transport assay, cells expressing hSGLT2 were seeded into a 96-well culture plate at a density of 5×10^4 cells/well in RPMI medium 1640 containing 10% fetal bovine serum. The cells were used 1 day after plating. They were incubated in pretreatment buffer (10 mM HEPES, 5 mM Tris, 140 mM choline chloride, 2 mM KCl, 1 mM CaCl2, and 1 mM MgCl2, pH 7.4) at 37° C. for 10 min. They were then incubated in uptake buffer (10 mM HEPES, 5 mM Tris, 140 mM NaCl, 2 mM KCl, 1 mM CaCl2, 1 mM MgCl2, and 1 mM ^14C-nonlabeled AMG pH 7.4) containing ^14C-labeled (8 uM) and inhibitor or dimethyl sulfoxide (DMSO) vehicle at 37° C. for 2 h. Cells were washed twice with washing buffer (pretreatment buffer containing 10 mM AMG at room temperature) and then the radioactivity was measured using a liquid scintillation counter.
With `OC[C@H]1O[C@@H](c2ccc(Cl)c(Cc3nnc(-c4ccoc4)s3)c2)[C@H](O)[C@@H](O)[C@@H]1O` [Example 4, (2S,3R,4R,5S,6R)-2-(4-Chloro-3-((5-(furan-3-yl)-1,3,4-thiadiazol-2-yl)methyl)phenyl)-6-(hydroxymethyl)tetrahydro-2H-pyran-3,4,5-triol], 0.0177 µM corresponded to half-maximal inhibition (IC50). Regarding `CC1CCC(Cc2nnc(Cc3cc(C4O[C@H](CO)[C@@H](O)[C@H](O)[C@H]4O)ccc3Cl)s2)CC1` (stereo partly drawn) [Example 25, (3R,4R,5S,6R)-2-(4-Chloro-3-((5-((4-methylcyclohexyl)methyl)-1,3,4-thiadiazol-2-yl)methyl)phenyl)-6-(hydroxymethyl)-tetrahydro-2H-pyran-3,4,5-triol], the IC50 (commonly the concentration at which inhibition is half-maximal) turned out to be 0.46 µM. The same measure for `OC[C@H]1OC(c2ccc(Cl)c(Cc3nnc(C4CCCCC4)s3)c2)[C@H](O)[C@@H](O)[C@@H]1O` (stereo partly drawn) [Example 24, (3R,4R,5S,6R)-2-(4-Chloro-3-((5-cyclohexyl-1,3,4-thiadiazol-2-yl)methyl)phenyl)-6-(hydroxymethyl)-tetrahydro-2H-pyran-3,4,5-triol]: 0.542 µM; for `CC(C)Cc1ccc(Cc2cc([C@@H]3O[C@H](CO)[C@@H](O)[C@H](O)[C@H]3O)ccc2Cl)nn1` [Example 77, (2S,3R,4R,5S,6R)-2-(4-Chloro-3-((6-isobutylpyridazin-3-yl)methyl)phenyl)-6-(hydroxymethyl)-tetrahydro-2H-pyran-3,4,5-triol]: 0.811 µM. The same measure for `Cc1cc(-c2nnc(Cc3cc([C@@H]4O[C@H](CO)[C@@H](O)[C@H](O)[C@H]4O)ccc3Cl)s2)ccn1` [Example 45, (2S,3R,4R,5S,6R)-2-(4-Chloro-3-((5-(2-methylpyridin-4-yl)-1,3,4-thiadiazol-2-yl)methyl)phenyl)-6-(hydroxymethyl)-tetrahydro-2H-pyran-3,4,5-triol]: 0.0364 µM. The figure for `Cc1ccoc1-c1nnc(Cc2cc([C@@H]3O[C@H](CO)[C@@H](O)[C@H](O)[C@H]3O)ccc2Cl)s1` [Example 3, (2S,3R,4R,5S,6R)-2-(4-Chloro-3-((5-(3-methylfuran-2-yl)-1,3,4-thiadiazol-2-yl)methyl)phenyl)-6-(hydroxymethyl)-tetrahydro-2H-pyran-3,4,5-triol] is 0.106 µM; for `OC[C@H]1O[C@@H](c2ccc(Cl)c(Cc3ccc(N4CCOCC4)nn3)c2)[C@H](O)[C@@H](O)[C@@H]1O` [Example 84, (2S,3R,4R,5S,6R)-2-(4-Chloro-3-((6-morpholinopyridazin-3-yl)methyl)phenyl)-6-(hydroxymethyl)-tetrahydro-2H-pyran-3,4,5-triol] it is 0.7 µM.

In turn, `OC[C@H]1O[C@@H](c2ccc(Cl)c(Cc3nnc(-c4ccco4)s3)c2)[C@H](O)[C@@H](O)[C@@H]1O` [Example 1, (2S,3R,4R,5S,6R)-2-(4-Chloro-3-((5-(furan-2-yl)-1,3,4-thiadiazol-2-yl)methyl)phenyl)-6-(hydroxymethyl)-tetrahydro-2H-pyran-3,4,5-triol] displayed an IC50 of 0.00703 µM. The same measure for `CCCc1ccc(-c2nnc(Cc3cc(C4O[C@H](CO)[C@@H](O)[C@H](O)[C@H]4O)ccc3Cl)s2)cc1` (stereo partly drawn) [Example 23, (3R,4R,5S,6R)-2-(4-Chloro-3-((5-(4-propylphenyl)-1,3,4-thiadiazol-2-yl)methyl)phenyl)-6-(hydroxymethyl)-tetrahydro-2H-pyran-3,4,5-triol]: 0.0249 µM; for `Cc1cc(Cc2cc([C@@H]3O[C@H](CO)[C@@H](O)[C@H](O)[C@H]3O)ccc2Cl)n[nH]c1=O` [Example 83, 6-(2-Chloro-5-((2S,3R,4R,5S,6R)-3,4,5-trihydroxy-6-(hydroxymethyl)-tetrahydro-2H-pyran-2-yl)benzyl)-4-methylpyridazin-3(2H)-one]: 0.618 µM; for `OC[C@H]1O[C@@H](c2ccc(Cl)c(Cc3nnc(-c4cc5ccccc5o4)s3)c2)[C@H](O)[C@@H](O)[C@@H]1O` [Example 30, (2S,3R,4R,5S,6R)-2-(3-((5-(Benzofuran-2-yl)-1,3,4-thiadiazol-2-yl)methyl)-4-chlorophenyl)-6-(hydroxymethyl)-tetrahydro-2H-pyran-3,4,5-triol]: 0.249 µM.
